Numbers after ± are expanded uncertainties.

The conditions of the series: Crystal; Heating/Cooling curves.

For `C[N+](=O)[O-]` [nitromethane], the Normal melting temperature is -29.79 ± 0.41 °C. Next, `COCCOC` [1,2-dimethoxyethane]: -69.74 ± 0.21 °C; `[2H]C([2H])([2H])S(=O)C([2H])([2H])[2H]` [(methyl sulfoxide)-d6]: 20.2 ± 0.21 °C. The same measure for `C[S+](C)[O-]` [dimethyl sulfoxide]: 17.80 ± 2 °C. The same measure for `C1COCCO1` [1,4-dioxane]: 11.33 ± 0.41 °C; for `CCOC(=O)OC` [ethyl methyl carbonate]: -55.01 ± 0.41 °C; for `COCCC#N` [3-methoxypropanenitrile]: -63.62 ± 0.53 °C.

Consider `O=C1OCCO1` [ethylene carbonate], for which the Normal melting temperature amounted to 35.38 ± 0.21 °C. Next, `COC(=O)OC` [dimethyl carbonate]: 3.91 ± 0.6 °C; `CCOC(=O)CC` [ethyl propanoate]: -73.44 ± 0.09 °C; `CC#N` [acetonitrile]: -44.08 ± 0.41 °C. As to `CCC1COC(=O)O1` (stereo unspecified) [1,2-butylene carbonate], the Normal melting temperature is -52.81 ± 1.2 °C. For the compound `O=C1CCCO1` [γ-butyrolactone], the Normal melting temperature was -44.71 ± 0.21 °C. The same measure for `CCn1cc[n+](C)c1.O=S(=O)([O-])C(F)(F)F` [1-ethyl-3-methylimidazolium trifluoromethanesulfonate]: -10.92 ± 0.6 °C; for `CCCCCCCC[N+](C)(CCCCCCCC)CCCCCCCC.O=C([O-])C(F)(F)F` [methyltrioctylammonium trifluoroacetate]: 12.47 ± 0.21 °C. For `CCOC(=O)OCC` [diethyl carbonate], the Normal melting temperature was -77.29 ± 0.6 °C.

These data come from the NIST ThermoML archive (doi:10.1016/j.jct.2008.05.012).
